Results published in a melting point compilation (Tetko et al.; mined from patent text by program, amines drawn as free bases though some values may be those of a salt).

| melting point | Compound |
| --- | --- |
| 139 to 140 °C | COCC(=O)Nc1nc2ccc(F)cc2s1 |
| 158 to 160 °C | C[C@@H](Oc1cccc(F)c1N)[C@H](NC(=O)OC(C)(C)C)C(=O)O |
| 62 to 64 °C | CCc1nccc(N(C(=O)Cc2ccc(Oc3ccc(C(F)(F)F)cn3)cc2)C(=O)OC)c1Cl |
| 180 °C | CN(CC(=O)OC(C)(C)C)C[C@@H]1CC(c2ccc(-c3ccc(N4C[C@H](Cn5ccnn5)OC4=O)cc3F)cn2)=NO1 |
| 158 to 159 °C | COc1cc(Cc2cc3cccc(-c4cccc(C(=O)NCCC#N)c4)c3s2)ccc1F |
| 163 to 167 °C | Fc1ccc2c(c1F)OCc1csc(=S)n1-2 |
| 68 to 71 °C | COc1ccc(OC(=O)CN2CCN(Cc3ccc(OC)c(OC)c3OC)CC2)cc1 |
| 126 °C | CC(C)Oc1cccc(C(CC(=O)O)NS(=O)(=O)c2ccc3ccccc3c2)c1 (centres undefined) |
| 179 to 181 °C | CCN(CC)c1ccc(C(=O)c2c(Cl)c(Cl)c(Cl)c(Cl)c2C(=O)O)c(C)c1 |
| 129 °C | CCn1cc(C#Cc2cccc(OC)c2)cc1C(=O)O |
| 108 to 110 °C | N#CSc1ccc(N)c(N)c1 |
| 164 °C | CCOC(=O)C(=CNc1ccc(C2=NNC(=O)CC2)cc1)C(=O)OCC |
| 177 °C | CC(=O)Nc1cc(C)c(OC(C)=O)cc1C |
| 158 to 159 °C | CCC(C)c1ccc(-n2c(-c3cc(C)c(OCCO)c(C)c3)nc3c(OC)cccc3c2=O)cc1 (centres undefined) |
| 213 to 216 °C | NC(Cc1c2ccccc2cc2ccccc12)(C(=O)O)C1CC(C(=O)O)C1 (centres undefined) |
| 109 to 111 °C | O=C(O)c1cc(F)c(F)c(Cl)c1F |
| 212 °C | CC(=O)Nc1ccc(Cl)c(O)c1 |
| 126 to 128 °C | CCNC(=O)c1cc(N)ccc1Oc1cncc(Cl)c1 |
| 100 °C | CCCS(=O)(=O)c1ccc2c(c1)C(=O)CC2 |
| 250 °C | NC(=O)c1cnc2c(F)c(F)ccc2c1 |
| 94 to 95 °C | Cc1cc(C)cc(Oc2cccc([N+](=O)[O-])n2)c1 |
| 230 to 231 °C | COc1cc(OC)c2c(=O)[nH]c(-c3ccc(OCCN4CCCC4)c(C)c3)nc2c1 |
| 158 to 159 °C | CCCc1nc2c(N)nc3cccnc3c2n1CCCC(C)N(OC)C(C)=O (centres undefined) |
| 144 to 145 °C | CNC(=O)C(=O)c1ccccc1COc1ccc(-c2ccccc2)cc1 |
| 106 °C | CC(C)c1cc(CCC(=O)O)cc(C(C)C)c1O |
| 190 to 192 °C | COC(=O)c1nc(Br)c(F)c(NC(C)=O)c1Cl |
| 114 to 115 °C | COc1ccc(CNc2ccccc2C(=O)Nc2ccc(F)c(C(F)(F)F)c2)cn1 |
| 94 to 103 °C | COc1cc(N)c(C(=O)N(C)C)cc1OC |

| melting point | Compound |
| --- | --- |
| 95 to 96 °C | CCOC(=O)c1ccc(C)c(Nc2nccc(-c3cccnc3)n2)c1 |
| 147 to 149 °C | Cc1ccc(C(=O)N(C(C)C)C(C)C)c(C(=O)O)c1F |
| 224 °C | C=CCOC(=O)c1c(-c2ccncc2)[nH]c(-c2ccncc2)c1C |
| 129 to 131 °C | COc1ccnc2c1cc(C)n2Cc1ccccc1 |
| 143 to 146 °C | O=C(O)c1c(O)cccc1-c1ccccc1 |
| 184 to 185 °C | CCOc1ccc2c(c1)CCN(C(=O)OCc1ccccc1)C21CCC(C(=O)O)(C(=O)O)CC1 |
| 245 to 247 °C | CCn1cc(C(=O)O)c(=O)c2cc(F)c(-c3ccnc(N)n3)cc21 |
| 188 to 190 °C | COc1ccc(-c2nc(CO)c[nH]2)cc1OC1CCCC1 |
| 144 to 148 °C | COc1c(C#N)cc([N+](=O)[O-])cc1C#N |
| 112 °C | CCOC(=O)c1cc(OCCC2CCN(c3ccc(Cl)nn3)CC2)cs1 |
| 230 °C | COc1ccc(-c2cnc(-c3ccccc3)[nH]c2=O)cc1OC |
| 166 to 167 °C | CCN(c1ccc(Br)cc1)c1nc(=O)c2cccnc2s1 |
| 113 to 114 °C | Cc1cc([N+](=O)[O-])ccc1N1CCOCC1=O |
| 95 to 96 °C | CCOc1ccc2nc(CCl)cn2c1 |
| 188 °C | CS(=O)(=S)OCc1ccc(C(=O)O)cc1 (centres undefined) |
| 146 to 149 °C | CC(C)CN1C(=O)[C@@H](CC(=O)O)O[C@H](c2ccccc2OC(C)C)c2cc(Cl)ccc21 (relative stereo) |
| 232 to 234 °C | CC(=O)NC[C@H]1CN(c2cc(F)c(N3CCC(n4nnc(N5CCOCC5)n4)CC3)c(F)c2)C(=O)O1 |
| 143 °C | COc1cc(-c2cccc(Cl)c2)c2cc(C(O)(c3ccc(Cl)cc3)c3cncn3C)cc(NC(C)=O)c2n1 (centres undefined) |
| 175 °C | O=C1CCc2cc(C(O)c3ccccc3)ccc2N1 (centres undefined) |
| 118 to 120 °C | CC(CO)Nc1cc(Oc2nn(C)c(C(F)(F)F)c2Cl)ccc1[N+](=O)[O-] (centres undefined) |
| 73 to 75 °C | CCOC(=O)c1c(C)nc2c(nc(C)n2C)c1Cl |
| 272 °C | CCNC(=O)n1ccc(O)cc1=O |
| 180 to 181 °C | COc1ccc(Cl)cc1S(=O)(=O)N1C2CCC1CN(CC(=O)Nc1ccccc1C)C2 |
| 144 to 146 °C | CC(=O)c1cc(N2CCOCC2)ccc1NC(=O)c1ccccc1OCc1ccccc1 |
| > 260 °C | Cc1cccc2nc(NC(=N)N)[nH]c12 |
| 87 to 90 °C | Fc1ccc(Nc2ncnc3cnc(N4CCCCCC4)nc23)cc1Cl |
| 123 to 124 °C | COc1cc(CCl)ccc1OCc1coc(-c2ccco2)n1 |

Second part, the compound before the results:

| Compound | melting point |
| --- | --- |
| Cc1cn([C@H]2C=C[C@@H](O)C2)c(=O)[nH]c1=O (racemic) | 191 to 192 °C |
| COc1ccc(C2=NN(C3CCN(Cc4ccncc4)CC3)C(=O)[C@@H]3CC=CC[C@H]23)cc1OC | 196 to 197 °C |
| O=C(O)c1cc(S(=O)(=O)N(CCc2ccc(Cl)cc2)Cc2ccccc2)ccc1Br | 142 to 144 °C |
| OCc1c(Cl)ccc(C2OCCO2)c1Cl | 82 to 85 °C |
| NC(=O)COc1ccc(CCN2CCC(Nc3nc4ccccc4n3Cc3ccc(F)cc3)CC2)cc1 | 180 °C |
| O=C1C(Cl)=C(NC2CCCC2)C(=O)c2ccccc21 | 81 to 83 °C |
| CCOC(=O)C1=C(C)NC(C(Nc2ccccc2C(=O)O)SCc2ccccc2)=C(C(=O)OCC)C1c1cccc([N+](=O)[O-])c1 (centres undefined) | 105 to 107 °C |
| CN(O)C(=O)c1ccc(CCCCc2ccccc2C(=O)O)cc1 | 94 to 95 °C |
| N#Cc1c(N2CCc3ccccc3CC2)nc2n(c1=O)CCN2 | > 200 °C |
| CC1OC(O)CC(O)C1O (centres undefined) | 102 to 105 °C |
| C=CCN1C(=O)CN(c2ccc(Cc3ccccc3)cc2)C1=S | 132 °C |
| Clc1ccc(Cn2ccc3cc(OCc4ccncc4)ccc32)cc1 | 105 to 107 °C |
| CC(=O)SCC(CC1CN(Cc2ccccc2)CCO1)C(=O)Nc1cccc(C(=O)O)c1 (centres undefined) | 103 to 105 °C |
| O=C1CC(SSSSC2CC(=O)NC2=O)C(=O)N1 (centres undefined) | 108 to 114 °C |
| O=C1Nc2ccc(-c3ccc(Cl)cc3)cc2C1=O | 246 to 252 °C |
| CCOP(=O)(OCC)C(c1cccnc1)C(O)c1ccccc1 (centres undefined) | 238 °C |
| CCOc1ccc2c(c1)n(CCN(C(C)C)C(C)C)c(=O)n2S(=O)(=O)c1ccc(OC)cc1OC | 132 °C |
| CC(=O)OCC(CCn1cnc2c(=O)[nH]c(N)nc21)COC(C)=O | 202 to 205 °C |
| CN(C)CCCNc1ncc2c(n1)-c1ccccc1C(c1cccc(Br)c1)C2 (centres undefined) | 120 to 122 °C |
| Cc1nc(N)c2nc(C)n(CCOCCNC(=O)C(C)C)c2c1C | 180 to 182 °C |
| COc1ccc2c(c1)c1c3c(c(-c4c(Cl)cccc4Cl)cc1n2CCO)C(=O)NC3=O | 229 to 231 °C |
| CC(=O)c1ccc(NC(=O)N2CCC3(CC2)CN(S(N)(=O)=O)c2ccccc23)cc1 | 233 to 236 °C |

| Compound | melting point |
| --- | --- |
| CCn1cc(C(=O)O)c(=O)c2cc(F)c(N3CCN(CCO)CC3)c(F)c21 | 225 to 228 °C |
| O=C(O)CSCCCCCCNS(=O)(=O)c1ccc(Cl)cc1 | 104 to 105 °C |
| O=c1[nH]c(=O)n(C2CC(O)C(CO)O2)cc1C(I)=CI (centres undefined) | 103 to 105 °C |
| Cc1cccc(C)c1NS(=O)(=O)c1cc(S(=O)(=O)Nc2c(C)cccc2C)c2cc(O)ccc2c1 | 162 to 164 °C |
| Oc1cc(-c2c3ccccc3c(Br)c3sc4ccccc4c23)cc(Br)c1O | 212 to 213 °C |
| CC(C)N1Cc2cccc(F)c2N(CCN2CC=C(c3c[nH]c4cc(F)ccc34)CC2)S1(=O)=O | 199 to 201 °C |
| O=C(OCC1OC(c2ccc(Cl)c(Cc3cc4ccccc4s3)c2)C(OC(=O)c2ccccc2)C(OC(=O)c2ccccc2)C1O)c1ccccc1 (centres undefined) | 215 to 217 °C |
| Clc1ccc2c(c1)C(c1ccccc1Cl)=NCc1cncnc1-2 | 120 to 121 °C |
| Cc1nc(NCCc2ccccc2)sc1-c1ccnc(Nc2ccc(N3CCN(Cc4ccccc4)CC3)cc2)n1 | 191 to 192 °C |
| O=C1N(CC2CCCO2)c2ccccc2C12COc1cc3c(cc12)OCCCO3 (centres undefined) | 134 to 138 °C |
| COc1cc2ncnc(N3CCC(C(O)CN4CCC(C)NS4(=O)=O)CC3)c2cc1OC (centres undefined) | 189 to 193 °C |
| Nc1c(Cl)cc(C(O)CNCCCCCCOCCSCCc2ccccn2)cc1Cl (centres undefined) | 59.5 to 62 °C |
| Nc1sc(-c2ccccc2)c(CN2CCCCC2)c1C(=O)c1ccc(Cl)cc1 | 185 to 187 °C |
| CS(=O)(=O)c1ccc(C[C@@H](N)[C@H](O)C(=O)C2(C(=O)O)CC2N)cc1 (some centres undefined) | 256 to 258 °C |
| CCCCCCCC(=O)N(C)Cc1cccc(-c2ccc(CC3SC(=O)NC3=O)cc2C)c1 (centres undefined) | 130 °C |
| N#Cc1ccc(NC(=O)c2ccc(S(=O)(=O)N3CCc4cc(Cl)ccc43)cc2)c(-c2n[nH]c(=O)o2)c1 | 262 to 264 °C |
| O=C1CC=C2N1CCN1C(=O)C[C@H]3CCCC[C@]231 (relative stereo) | 105 to 125 °C |
| CC(=O)N(C=CC(=Nc1ccccc1)Oc1ccccc1)c1ccccc1 | 120 °C |
| S=c1c2[nH]cnc2c2cccnc2n1-c1ccccc1 | > 300 °C |
| Cn1cc(C2=C(c3c4n(c5ccccc35)CCC(C#N)C4)C(=O)NC2=O)c2ccccc21 (centres undefined) | 312 to 313 °C |
| CC(C)CCOC1CCC(=O)N1 (centres undefined) | 73 to 75 °C |
| Cc1c(CO)c2c(c(C)c1NC(=O)NC(C)(C)C)C(c1ccc(C(C)C)cc1)CO2 (single isomer, unassigned; (+)) | 187 to 188 °C |
